This passage reports IC50 results from patent US20230286923A1 (INIPHARM, INC., priority 2020, published 2023).

pIC50: −log10 of the molar value. Some results are limits rather than exact numbers.

Experiment [1] addresses T1, HSD17B13 enzyme (Homo sapiens (Human), UniProt Q7Z5P4). Description: NADH detection assay (fluorescence based LTB3 assay) for HSD17B13 activity. It counts as biochemical. The note with it: substrate 25 µM LTB3, 3 mM NAD+, 125 nM enzyme. How it is done:
The fluorescence based Leukotriene B3 (LTB3) assay monitors the fluorescence of NADH, which is generated from NAD+ during the dehydrogenation of the substrate LTB3. The reactions were performed in a 384-well plates (Greiner; #655076) in a 20 µl reaction volume containing the following reagents (final concentrations): 25 µM LTB3 (Cayman; #20109); 3 mM NAD^+ (Sigma; #N0623); 125 nM HSD17B13 enzyme (in-house; E. coli expressed His-tagged, purified, soluble protein); 1 M potassium phosphate buffer, pH 7.4; and 1% DMSO. Reactions were initiated by co-addition of NAD+ and enzyme, and monitored for 1 hour at 26.5° C. Generation of NADH was measured as the fluorescence signal (Excitation at 340 nm and Emission at 445 nm) at 1 hour minus the baseline fluorescence at t=0. Fluorescence signals in the absence of LTB3 (negative control values), were subtracted from all values so that the results reflected substrate-dependent production of NADH. NADH standards were included to allow the conversion of relative fluorescence units into rates of enzyme activity. Enzyme activity in the presence of test compounds was expressed as a percentage of the uninhibited enzyme activity, and plotted versus inhibitor concentration. Non-linear regression was performed using a four-parameter logistic model and Microsoft Excel Solver software Ten concentrations of inhibitor were tested in duplicate (in the range of 30 µM - 2.5 nM), and two independent concentration response assays were performed.

Experiment [2] has as its target T1, HSD17B13 enzyme. Briefly: Estrone detection assay (LC/MS, conversion of estradiol to estrone) for HSD17B13 activity. It counts as biochemical. The settings on record: substrate 4 µM estradiol, 6 mM NAD+, 30 nM enzyme. How it is done:
The liquid chromatography/mass spectrometry (LC/MS) estrone detection assay monitors the conversion of estradiol to estrone by HSD17B13. This assay was undertaken in a 96wp format (Eppendorf deep well Plate 96/500) in an 80 µl reaction volume containing: 4 µM of Estradiol (E2; Cayman; #10006315), 6 mM NAD^+ (Sigma; #N0623) and 30 nM HSD17B13 enzyme (in-house; E. coli expressed His-tagged, purified, soluble protein) in a reaction containing 1 M potassium phosphate buffer pH 7.4, with 0.5% vehicle (DMSO). Reactions were incubated for 2 hours at 26.5° C., and estradiol (E2) conversion to estrone (E1) was quantitated by LC-MS/MS based analyte detection for both E2 and E1 using LCMS grade reagents.
Reactions were terminated by the addition of two volumes of acetonitrile (MeCN; LCMS grade; CAS# 75/05/8) containing deuterated (D4)-E1 used as internal standard (Clear Synth; #CS-T-54273; 500 ng/mL final concentration). Samples were applied to pre-prepared Bond Elut-C18 extraction cartridges (3 mL; Agilent; #12102028), washed and eluted in MeCN. Eluates were dried under nitrogen and re-suspended in 60% methanol (LCMS grade methanol; CAS# 67/56/1) before submission for analysis. Aqueous linearity for E2 and E1 were included for quantification.
Analysis of samples was undertaken on a XBridge BEH C18 column (Waters; #186003033) using 0.1% Diethyl Amine in MeCN (mobile phase A; DEA CAS# 109-89-7) and 0.1% Diethyl Amine in milli-Q water (mobile phase B) in a 3 min gradient allowing 25%B. Analytes were detected in negative mode using MRM analysis, with E2 having a RT of 1.85 min and E1 having a RT of 2 min. Activity of the enzyme, in the absence of NAD^+, was used to evaluate specificity of conversion. Enzyme activity in the presence of test samples was expressed as a percentage of the uninhibited enzyme activity, and plotted versus inhibitor concentration. Non-linear regression was performed using a four-parameter logistic model and GraphPad Prism software (GraphPad Software, La Jolla, CA). All assessments were undertaken in duplicate evaluations and pooled during extraction process and subsequently injected as duplicates for LC-MS/MS analysis.

T1 sequence (Q7Z5P4 20-300): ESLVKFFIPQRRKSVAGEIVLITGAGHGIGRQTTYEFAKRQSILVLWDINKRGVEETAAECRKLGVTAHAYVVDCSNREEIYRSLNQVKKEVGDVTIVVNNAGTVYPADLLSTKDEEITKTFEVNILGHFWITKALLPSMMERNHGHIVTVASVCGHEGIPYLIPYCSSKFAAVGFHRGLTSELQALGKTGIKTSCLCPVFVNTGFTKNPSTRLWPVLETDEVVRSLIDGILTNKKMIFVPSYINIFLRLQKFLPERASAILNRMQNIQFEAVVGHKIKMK

One may read the pIC50 as the IC50 on a negative log10 scale, so that one unit is a factor of ten. High values mean a low IC50, low ones a high IC50. Turning to `COc1ccccc1CCn1cnc2cccc(NC(=O)c3ccc(O)c(Cl)c3)c2c1=O` [Example 1, 3-chloro-4-hydroxy-N-(3-(2-methoxyphenethyl)-4-oxo-3,4-dihydroquinazolin-5-yl)benzamide], the pIC50 was at least 6.00 against HSD17B13 enzyme [1] and at least 7.00 against HSD17B13 enzyme [2].
For `COc1ccccc1CCn1cnc2cccc(NC(=O)c3ccc(O)c(F)c3)c2c1=O` [Example 2, 3-fluoro-4-hydroxy-N-(3-(2-methoxyphenethyl)-4-oxo-3,4-dihydroquinazolin-5-yl)benzamide], in that order: at least 6.00 and at least 7.00.
With `O=C(Nc1cccc2ncn(Cc3ccccc3)c(=O)c12)c1ccc(O)c(Cl)c1` [Example 3, N-(3-benzyl-4-oxo-3,4-dihydroquinazolin-5-yl)-3-chloro-4-hydroxybenzamide], the pIC50 was at least 6.00 at HSD17B13 enzyme [1] and at least 7.00 against HSD17B13 enzyme [2].
As for `COc1ccccc1CCn1cnc2cccc(NC(=O)c3ccc(OCC(=O)O)c(F)c3)c2c1=O` [Example 4, 2-(2-fluoro-4-((3-(2-methoxyphenethyl)-4-oxo-3,4-dihydroquinazolin-5-yl)carbamoyl)phenoxy)acetic acid], the results for the pIC50 at HSD17B13 enzyme [1] and at HSD17B13 enzyme [2] were under 5.00 and 5.00 to 6.00, respectively.
For `COc1ccccc1CCn1cnc2cccc(NC(=O)c3ccc(C(=O)O)c(Cl)c3)c2c1=O` [Example 5, 2-chloro-4-((3-(2-methoxyphenethyl)-4-oxo-3,4-dihydroquinazolin-5-yl)carbamoyl)benzoic acid], in that order: under 5.00 and 5.00 to 6.00.
The like results for `COc1ccccc1Cn1cnc2cccc(NC(=O)c3ccc(O)c(Cl)c3)c2c1=O` [Example 6, 3-chloro-4-hydroxy-N-(3-(2-methoxybenzyl)-4-oxo-3,4-dihydroquinazolin-5-yl)benzamide] were, in that order, at least 6.00 and at least 7.00.
For `COc1ccccc1CCn1cnc2cccc(NC(=O)c3ccnc(C(F)(F)F)c3)c2c1=O` [Example 7, N-(3-(2-methoxyphenethyl)-4-oxo-3,4-dihydroquinazolin-5-yl)-2-(trifluoromethyl)isonicotinamide], in that order: under 5.00 and under 5.00.
As for `O=C(Nc1cccc2ncn(-c3ccccc3)c(=O)c12)c1ccc(O)c(Cl)c1` [Example 8, 3-chloro-4-hydroxy-N-(4-oxo-3-phenyl-3,4-dihydroquinazolin-5-yl)benzamide], the negative-log IC50 (pIC50) against HSD17B13 enzyme [1] is under 5.00; on HSD17B13 enzyme [2], 6.00 to 7.00.
For the compound `O=C(Nc1cccc2ncn(-c3cccnc3)c(=O)c12)c1ccc(O)c(Cl)c1` [Example 9, 3-chloro-4-hydroxy-N-(4-oxo-3-(pyridin-3-yl)-3,4-dihydroquinazolin-5-yl)benzamide], the results for the pIC50 against HSD17B13 enzyme [1] and at HSD17B13 enzyme [2] were under 5.00 and 6.00 to 7.00, respectively.
For `CC(C)(C)CCn1cnc2cccc(NC(=O)c3ccc(O)c(Cl)c3)c2c1=O` [Example 10, 3-chloro-N-(3-(3,3-dimethylbutyl)-4-oxo-3,4-dihydroquinazolin-5-yl)-4-hydroxybenzamide], in that order: at least 6.00 and at least 7.00.
The like results for `Cn1c(-c2cccnc2)nc2cccc(NC(=O)c3ccc(O)c(Cl)c3)c2c1=O` [Example 11, 3-chloro-4-hydroxy-N-(3-methyl-4-oxo-2-(pyridin-3-yl)-3,4-dihydroquinazolin-5-yl)benzamide] were, in that order, 5.30 to 6.00 and 6.00 to 7.00.
Regarding `O=C(Nc1cccc2ncn(CC3CC3)c(=O)c12)c1ccc(S(=O)(=O)NC(=O)c2ccccc2)c(Cl)c1` [Example 14, 4-(N-benzoylsulfamoyl)-3-chloro-N-(3-(cyclopropylmethyl)-4-oxo-3,4-dihydroquinazolin-5-yl)benzamide], the negative logarithm of the IC50 (pIC50) at HSD17B13 enzyme [1] is 5.30 to 6.00; on HSD17B13 enzyme [2] it was 5.00 to 6.00.
For `CC(C)(C)CCn1cnc2cccc(NC(=O)c3cc(Cl)c(O)nn3)c2c1=O` [Example 15, 5-chloro-N-(3-(3,3-dimethylbutyl)-4-oxo-3,4-dihydroquinazolin-5-yl)-6-hydroxypyridazine-3-carboxamide], the negative logarithm of the IC50 (pIC50) on HSD17B13 enzyme [1] was under 5.00; against HSD17B13 enzyme [2] it was 5.00 to 6.00.
As for `CC(C)(C)CCn1cnc2cccc(NC(=O)c3ccc(S(=O)(=O)NC(=O)c4cccnc4)c(Cl)c3)c2c1=O` [Example 16, N-((2-chloro-4-((3-(3,3-dimethylbutyl)-4-oxo-3,4-dihydroquinazolin-5-yl)carbamoyl)phenyl)sulfonyl)nicotinamide], the pIC50 against HSD17B13 enzyme [1] was 5.00 to 5.30; against HSD17B13 enzyme [2], 5.00 to 6.00.
With `Cn1c(-c2cccnc2)nc2cccc(NC(=O)c3ccc(-c4nnn[nH]4)c(F)c3)c2c1=O` [Example 17, 3-fluoro-N-(3-methyl-4-oxo-2-(pyridin-3-yl)-3,4-dihydroquinazolin-5-yl)-4-(1H-tetrazol-5-yl)benzamide], the pIC50 at HSD17B13 enzyme [1] and against HSD17B13 enzyme [2] was under 5.00 throughout.
Consider `CC(C)(C)CCn1cnc2cccc(NC(=O)c3ccc(S(=O)(=O)NC(=O)c4ccccc4)c(Cl)c3)c2c1=O` [Example 18, 4-(N-benzoylsulfamoyl)-3-chloro-N-(3-(3,3-dimethylbutyl)-4-oxo-3,4-dihydroquinazolin-5-yl)benzamide], for which the results for the negative logarithm of the IC50 (pIC50) against HSD17B13 enzyme [1] and at HSD17B13 enzyme [2] were under 5.00 and 5.00 to 6.00, respectively.
Consider `COc1ccccc1CCn1cnc2cccc(NC(=O)c3cc(Cl)c4[nH]c(=O)[nH]c4c3)c2c1=O` [Example 19, 7-chloro-N-(3-(2-methoxyphenethyl)-4-oxo-3,4-dihydroquinazolin-5-yl)-2-oxo-2,3-dihydro-1H-benzo[d]imidazole-5-carboxamide], for which the negative-log IC50 (pIC50) on HSD17B13 enzyme [1] was 5.30 to 6.00; against HSD17B13 enzyme [2] it was under 5.00.
With `O=C(Nc1cccc2ncn(Cc3ccncc3)c(=O)c12)c1ccc(O)c(F)c1` [Example 20, 3-fluoro-4-hydroxy-N-(4-oxo-3-(pyridin-4-ylmethyl)-3,4-dihydroquinazolin-5-yl)benzamide], the pIC50 at HSD17B13 enzyme [1] was under 5.00; at HSD17B13 enzyme [2] it was 6.00 to 7.00.
Consider `N#Cc1cc(C(=O)Nc2cccc3ncn(Cc4cc[nH]n4)c(=O)c23)cc(F)c1O` [Example 61, N-(3-((1H-pyrazol-3-yl)methyl)-4-oxo-3,4-dihydroquinazolin-5-yl)-3-cyano-5-fluoro-4-hydroxybenzamide], for which the negative-log IC50 (pIC50) at HSD17B13 enzyme [2] is 6.00 to 7.00.
Regarding `CS(=O)(=O)c1ccccc1Cn1cnc2cccc(NC(=O)c3cc(F)c(O)c(C#N)c3)c2c1=O` [Example 62, 3-cyano-5-fluoro-4-hydroxy-N-(3-(2-(methylsulfonyl)benzyl)-4-oxo-3,4-dihydroquinazolin-5-yl)benzamide], the pIC50 on HSD17B13 enzyme [2] is 6.00 to 7.00.
Regarding `CC(C)(C)n1ccc(Cn2cnc3cccc(NC(=O)c4cc(F)c(O)c(C#N)c4)c3c2=O)n1` [Example 63, N-(3-((1-(tert-butyl)-1H-pyrazol-3-yl)methyl)-4-oxo-3,4-dihydroquinazolin-5-yl)-3-cyano-5-fluoro-4-hydroxybenzamide], the pIC50 against HSD17B13 enzyme [2] is 6.00 to 7.00.
Consider `O=C(Nc1cccc2ncn(Cc3ccccc3OC(F)(F)F)c(=O)c12)c1cc(F)c(O)c(C(F)(F)F)c1` [Example 64, 3-fluoro-4-hydroxy-N-(4-oxo-3-(2-(trifluoromethoxy)benzyl)-3,4-dihydroquinazolin-5-yl)-5-(trifluoromethyl)benzamide], for which the pIC50 at HSD17B13 enzyme [2] was at least 7.00.
`O=C(Nc1cccc2ncn(Cc3cccc(F)c3)c(=O)c12)c1cc(Cl)c(O)c(=O)[nH]1` [Example 65, 4-chloro-N-(3-(3-fluorobenzyl)-4-oxo-3,4-dihydroquinazolin-5-yl)-5-hydroxy-6-oxo-1,6-dihydropyridine-2-carboxamide] gave a negative logarithm of the IC50 (pIC50) at HSD17B13 enzyme [2] of under 5.00.
